The values below come from patent US20130261077A1 (priority 2012, published 2013).

SMILES strings stand for the structures.

A word on the Kd: it is the concentration at which binding is half-saturated. Higher therefore signals a looser complex.

The target in this assay is T1, FimH-CRD (Escherichia coli, UniProt P08191).
T1 construct: The first 177 amino acids of the FimH protein; thrombin tag (printed as 'fusion protein with thrombin') (cleaved yes); made in house; host or cells: bacteria (pET21b plasmid)
T1 sequence (P08191 22-177): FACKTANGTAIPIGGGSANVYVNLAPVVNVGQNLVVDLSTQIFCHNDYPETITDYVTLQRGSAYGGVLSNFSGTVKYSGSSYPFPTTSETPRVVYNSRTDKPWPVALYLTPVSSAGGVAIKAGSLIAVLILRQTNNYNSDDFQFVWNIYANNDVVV
Description: Competitive binding assay by fluorescence polarization, assay 2 (compounds prepared by robotics, plates frozen and thawed). The procedure, abridged:
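Compounds at 0.4 nM–75 μM final (12 points, 3-fold steps, duplicate) compete with a 5 nM Alexa 647 mannoside probe for 60 nM FimH-CRD; 5 h room-temperature incubation in pH 7.0 Tris buffer with 2.5% DMSO, FP read-out, Kd from fitted curves. Assay 1 uses manual dilution, assay 2 robot-made frozen/thawed plates.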
Background: Polarisation of emitted light reports the rotation of a fluorescent probe.
Turning to `COC(=O)c1ccc(OCc2cccc([C@H]3O[C@H](CO)[C@@H](O)[C@H](O)[C@@H]3O)c2)cc1` [Compound 261, methyl 4-[[3-[(2R,3S,4R,5S,6R)-3,4,5-trihydroxy-6-(hydroxymethyl)tetrahydropyran-2-yl]phenyl]methoxy]benzoate], the affinity, expressed as Kd, was 32.2 ± 8.1 nM. In the case of `OC[C@H]1O[C@H](c2cccc(-c3ccc(-c4nnc(-c5ccccn5)o4)cc3)c2)[C@@H](O)[C@@H](O)[C@@H]1O` [Compound 120, (2R,3S,4R,5S,6R)-2-(hydroxymethyl)-6-[3-[4-[5-(2-pyridyl)-1,3,4-oxadiazol-2-yl]phenyl]phenyl]tetrahydropyran-3,4,5-triol] it was 12.8 ± 2.1 nM; in that of `OC[C@H]1OC(c2cccc(OCc3ccccc3-c3ccccc3)c2)[C@@H](O)[C@@H](O)[C@@H]1O` (stereo partly drawn) [Compound 220], 16.6 ± 4.4 nM; in that of `C#Cc1cc([C@H]2O[C@H](CO)[C@@H](O)[C@H](O)[C@@H]2O)ccc1OC` [Compound 75, (2R,3S,4R,5S,6R)-2-(3-Ethynyl-4-methoxy-phenyl)-6-(hydroxymethyl)tetrahydropyran-3,4,5-triol], 40 ± 11.3 nM. Under `O=C(COc1ccc(C2O[C@H](CO)[C@@H](O)[C@H](O)[C@@H]2O)cc1)C1CC1` (stereo partly drawn) [Compound 235] stands 14.1 ± 0.3 nM; under `OC[C@H]1O[C@H](c2cccc(C#Cc3ccccc3)c2)[C@@H](O)[C@@H](O)[C@@H]1O` [Compound 91, (2R,3S,4R,5S,6R)-2-(Hydroxymethyl)-6-[3-(2-phenylethynyl)phenyl]tetrahydropyran-3,4,5-triol], 23.6 ± 8.7 nM; under `OCc1cccc([C@H]2O[C@H](CO)[C@@H](O)[C@H](O)[C@@H]2O)c1` [Compound 260, (2R,3S,4R,5S,6R)-2-(hydroxymethyl)-6-[3-(hydroxymethyl)phenyl]tetrahydropyran-3,4,5-triol], 125 ± 52.6 nM. `Cc1nnc(-c2cccc(-c3cccc([C@H]4O[C@H](CO)[C@@H](O)[C@H](O)[C@@H]4O)c3)c2)o1` [Compound 123, (2R,3S,4R,5S,6R)-2-(hydroxymethyl)-6-[3-[3-(5-methyl-1,3,4-oxadiazol-2-yl)phenyl]phenyl]tetrahydropyran-3,4,5-triol] displayed an equilibrium dissociation constant (Kd) of 37.1 ± 8.5 nM.

Consider `COC(=O)c1cccc(C#Cc2cccc([C@H]3O[C@H](CO)[C@@H](O)[C@H](O)[C@@H]3O)c2)c1` [Compound 86, Methyl 3-[2-[3-[(2R,3S,4R,5S,6R)-3,4,5-trihydroxy-6-(hydroxymethyl)tetrahydropyran-2-yl]phenyl]ethynyl]benzoate], for which binding was characterised by a dissociation constant (Kd) of 23.7 ± 10.8 nM. `COc1cc([C@H]2O[C@H](CO)[C@@H](O)[C@H](O)[C@@H]2O)ccc1Br` [Compound 77] yielded a dissociation constant Kd of 81.7 ± 11 nM. For the compound `CC(C)(C)OC(=O)NCc1nnc(-c2ccc(-c3cccc([C@H]4O[C@H](CO)[C@@H](O)[C@H](O)[C@@H]4O)c3)cc2)o1` [Compound 115, tert-Butyl N-[[5-[4-[3-[(2R,3S,4R,5S,6R)-3,4,5-trihydroxy-6-(hydroxymethyl)tetrahydropyran-2-yl]phenyl]phenyl]-1,3,4-oxadiazol-2-yl]methyl]carbamate], the affinity, expressed as Kd, was 24.2 ± 2.9 nM. In the case of `CNC(=O)c1ccc(Oc2cc([C@H]3O[C@H](CO)[C@@H](O)[C@H](O)[C@@H]3O)ccc2F)cc1` [Compound 197, 4-[2-fluoro-5-[(2R,3S,4R,5S,6R)-3,4,5-trihydroxy-6-(hydroxymethyl)tetrahydropyran-2-yl]phenoxy]-N-methyl-benzamide] it was 11.7 ± 2.8 nM.

`CNC(=O)c1cccc(Cc2cccc([C@H]3O[C@H](CO)[C@@H](O)[C@H](O)[C@@H]3O)c2)c1` [Compound 157, N-methyl-3-[[3-[(2R,3S,4R,5S,6R)-3,4,5-trihydroxy-6-(hydroxymethyl)tetrahydropyran-2-yl]phenyl]methyl]benzamide] yielded a Kd of 34.3 ± 8.1 nM. This Kd is about 2.9-fold higher than that of the compound before. Under `CNC(=O)c1cc(/C=C/c2cccc([C@H]3O[C@H](CO)[C@@H](O)[C@H](O)[C@@H]3O)c2)cc(C(=O)NC)c1` [Compound 136] stands 19.2 ± 3.6 nM; under `CNC(=O)c1ccc(COc2ccc(C3O[C@H](CO)[C@@H](O)[C@H](O)[C@@H]3O)cc2)cc1` (stereo partly drawn) [Compound 249], 19.6 ± 10.2 nM.
